Laboratory results taken from article PMC11496002 (Epilepsia, 2024).
Where two headings read alike, the source gives them in different places.

Experiments:
[1] = tested on: hyperthermia-induced seizures in Scn1a^A1783V/WT mice; conditions: cited from earlier work
[2] = Plasma and brain pharmacokinetics after intraperitoneal administration; conditions: for Brain/Plasma ratio AUC0-inf / Brain/Plasma ratio Cmax: assumes brain density 1 g/ml
[3] = Monitoring for sedation via physical observation; type: in vivo, mouse; conditions: all mice treated with CBD (70-150 mg/kg with CLB 5 + VPA 75 mg/kg ip)
Core body temperature = type: in vivo, mouse; conditions: all mice treated with CBD (with CLB + VPA) ip
[4] = mouse, in vivo
[5] = comedication with CLB; cited from earlier work
in vivo = conditions: Scn1a^WT/WT (wild-type), mouse, ip
[6] = Double (CLB+VPA) ip, Scn1a^WT/WT mice
[7] = Single Drug, each alone ip, Scn1a^WT/WT mice
[8] = Triple (CLB+VPA+CBD) ip, Scn1a^WT/WT mice

In the case of C[C@H]1CNCCc2ccc(Cl)cc21 [LCS, Lorcaserin], the “Protection against hyperthermia-induced seizures” value (“Protection” for short) ([1]; LCS 10 mg/kg alone) is given as “insufficient to prevent hyperthermia-induced seizures”.

For O=C1CC(=O)N(c2ccccc2)c2cc(Cl)ccc2N1 [N-CLB, N-desmethylclobazam], the “Brain/Plasma ratio AUC0-inf” value [2, 6] was 1.42, the “Brain/Plasma ratio Cmax” value [2, 6] was 1.39 and the “Brain/Plasma ratio AUC0-inf” value [2, 7] was 2.1. For the same compound, the “Brain/Plasma ratio Cmax” value [2, 7] was 1.25, the “Brain/Plasma ratio AUC0-inf” value [2, 8] was 1.56 and the “Brain/Plasma ratio Cmax” value [2, 8] was 1.2. The “Brain/Plasma ratio AUC0-inf” value ([2]; Triple (CLB+VPA+STP) ip, Scn1a^WT/WT mice) was 2.29, the “Exposure when adding CBD to CLB+VPA vs adding STP to CLB+VPA” value ([2]; mouse, in vivo) was “higher” and the “Fold increase of concentrations in triple-drug therapies compared to CLB+VPA” value ([2]; mouse, in vivo) was greater than 2 fold.

In the case of C=C(C)[C@@H]1CCC(C)=C[C@H]1c1c(O)cc(CCCCC)cc1O [CBD, cannabidiol], the Signs of sedation [3] is reported as “No signs of sedation”, the “Post-injection core body temperature compared to baseline pre-injection” value (Core body temperature) is reported as “reduction in post-injection core body temperatures” and the “Increase in brain exposure, CBD+CLB+VPA compared to CBD monotherapy” value ([2]; mouse, in vivo) is reported as “two-fold”.

For CCCC(CCC)C(=O)O [VPA, sodium valproate], the “Brain exposure in CBD+CLB+VPA compared to CLB+VPA or VPA-alone” value [4] was “increase”.

In the case of CCNC(C)Cc1cccc(C(F)(F)F)c1 (stereo not drawn) [FFA, fenfluramine], the “Protection” value ([1]; FFA 25 mg/kg alone) is given as “insufficient to prevent hyperthermia-induced seizures”.

For C=C(C)[C@@H]1CCC(CO)=C[C@H]1c1c(O)cc(CCCCC)cc1O [7-OH-CBD, 7-hydroxycannabidiol], the “Brain/Plasma ratio AUC0-inf” value [2, 7] was 0.82, the “Brain/Plasma ratio Cmax” value [2, 7] was 0.93 and the “Brain/Plasma ratio AUC0-inf” value [2, 8] was 1.02. For the same compound, the “Brain/Plasma ratio Cmax” value [2, 8] was 0.86.

For CC(C)(C)C(O)/C=C/c1ccc2c(c1)OCO2 (stereo not drawn) [STP, stiripentol], the “Brain Cmax, CLB + VPA + STP cohort vs STP alone” value [4] is given as “not different”, the “Protection” value ([1]; STP 100 mg/kg alone) is given as “ineffective” and the “Increase of STP concentration by CLB” value [5] is given as 37%. For the same compound, the half-life (in vivo) was 52.1 min.

In the case of CN1C(=O)CC(=O)N(c2ccccc2)c2cc(Cl)ccc21 [CLB, clobazam], the “Exposure (AUC0-inf), triple-drug therapy (CLB+VPA+STP) vs CLB alone or CLB + VPA” value ([2]; Scn1a^WT/WT mice) is reported as “substantially higher”, the “CLB stand-alone PK in Scn1a^A1783V/WT vs Scn1a^WT/WT mice” value ([2]; Table S2) is reported as “comparable PK profile” and the “Exposure when adding CBD to CLB+VPA vs adding STP to CLB+VPA” value ([2]; mouse, in vivo) is reported as “higher”. For the same compound, the “Brain Cmax, triple-drug therapy (CLB+VPA+STP) vs CLB alone and CLB + VPA” value ([2]; p<0.0001 vs CLB alone, p=0.0003 vs CLB + VPA) was “significantly higher”.
